Experimental data published in patent US8143446B2, “Substituted acrylamide derivative and pharmaceutical composition comprising the same” (Daiichi Sankyo Company, Limited, priority 2005, dated 2012).

How the values were obtained:
[1] = system: 4-week old male Wistar rats; test: Evaluation of blood calcium concentration-decreasing activity (serum calcium after oral dosing of immature rats); format: in vivo, rat; conditions: serum 6 hours after administration, fasted 4-week old male Wistar rats, vs normal control group
Method: The blood calcium concentration in a living body is strictly controlled and constantly maintained by intestinal absorption and urinary excretion and release (bone resorption) and adhesion (bone formation) in bone tissues. […] The bone resorption-suppressing activity of compounds according to the present invention was evaluated by administering the compounds to immature rats and observing decreases in blood calcium concentration as an index of the activity.
The test was conducted using 4-week old male Wistar rats fasted for 12 to 24 hours. Each compound to be tested was suspended in 0.5% methyl cellulose (MC). The suspension was orally administered to the rats at a dose of 5 mL/kg. Similarly, rats of a normal control group were administered with 0.5% MC alone. Then, blood was drawn from rat jugular vein under ether anesthesia 6 hours after the administration of each test compound or 0.5% MC. The blood was immediately centrifuged (10000 rpm, 5 minutes) at room temperature to separate serum. The calcium concentration of each serum was measured by an autoanalyzer (JEOL, JCA-BM2250). Five rats were used for each test group.
The evaluation was conducted by a comparative test with the normal control group and based on the serum calcium concentration-decreasing rate (%) calculated according to the following formula:
Serum calcium concentration-decreasing rate (%)=(([serum calcium concentration in normal control group] - [serum calcium concentration in test compound administration group])/[serum calcium concentration in normal control group])×100.

[2] = system: adjuvant arthritis model rats; test: Evaluation of bone density decrease-suppressing activity and anti-arthritic activity (adjuvant arthritis model); format: in vivo, rat; conditions: oral 10 mg/kg once a day for 7 days from day 14 after adjuvant; for Paw edema-suppressing rate (%): hind paw volume on day 21, 8-week old female Lewis rats; for Bone density decrease-suppressing rate (%): thighbone bone density on day 21, 8-week old female Lewis rats
Method: In rheumatoid arthritis, not only swelling and pain caused by arthritis but also systemic bone mass decrease and articular destruction caused by a significant increase in bone resorption are observed.
The test was conducted using 8-week old female Lewis rats. Mycobacterium butyricum cells which were killed by heat were ground in an agate mortar, suspended in liquid paraffin sterilized by dry heat to a concentration of 2 mg/mL, and treated with ultrasound to prepare an adjuvant. Under ether anesthesia, rats in a control group other than a normal control group and rats in a test compound administration group were intradermally injected with 0.05 mL of this adjuvant each time (0.1 mL/rat in total) at two portions of the base of the tail. Starting from 14 days after the injection of the adjuvant, each rat was orally administered with 5 mL/kg of a test compound suspended in 0.5% MC once a day for 7 days. Similarly, the rats of the control group were administered with 0.5% MC alone. On the 21st day after the adjuvant injection, hind paw volumes were measured by using a paw edema volume determining device (MUROMACHI KIKAI, TK-101CMP). Then, the thighbone was biopsied. The thighbone was, after removing soft tissues, sufficiently fixed, dehydrated, and dried using ethanol. The bone density of the thighbone was measured with a bone density analyzer (Aloka, DOS-600 EX-IIIR). Five rats were used for each test group.
The evaluation was conducted by comparison tests with the normal control group and the control group and based on the bone density decrease-suppressing rate (%) and the paw edema-suppressing rate (%) calculated according to the following formulae: Bone density decrease-suppressing rate (%)=(1−([thighbone bone density in normal control group]−[thighbone bone density in test compound administration group])/([thighbone bone density in normal control group]−[thighbone bone density in control group]))×100 Paw edema-suppressing rate (%)=(1−([paw volume of test compound administration group]−[paw volume in normal control group])/([paw volume in control group]−[paw volume in normal control group]))×100

Structure (SMILES) | melting point [°C] | Serum calcium concentration-decreasing rate (%) ([1]; administration dose 20 mg/kg) | Paw edema-suppressing rate (%) [2] [%] | Bone density decrease-suppressing rate (%) [2] [%] | Serum calcium concentration-decreasing rate (%) ([1]; administration dose 10 mg/kg)
CC(C)Oc1ccc(/C=C(\NC(=O)c2ccc(OCCc3ccc(N(C)C)cc3)cc2)C(=O)NCCO)cc1.Cl | 103 to 105 | – | – | – | –
CC(C)COc1ccc(C(=O)N/C(=C\c2ccc(OC(C)C)cc2)C(=O)NCCO)c(F)c1 [Example 2-21, 2-fluoro-N-[(Z)-1-{[(2-hydroxyethyl)amino]carbonyl}-2-(4-isopropoxyphenyl)vinyl]-4-isobutoxybenzamide] | 51 to 54 | – | – | – | –
CC(C)COc1ccc(C(=O)N/C(=C\c2ccc3ccccc3c2)C(=O)NCCO)cc1 [Example 2-6, N-[(Z)-1-{[(2-hydroxyethyl)amino]carbonyl}-2-(2-naphthyl)vinyl]-4-isobutoxybenzamide] | 150 to 152 | – | – | – | –
O=C(NCCO)/C(=C/c1ccc(OC(F)(F)F)cc1)NC(=O)c1ccc(OCCC2CC2)cc1 [Example 11, 4-(2-Cyclopropylethoxy)-N-{(Z)-1-{[(2-hydroxyethyl)amino]carbonyl}-2-[4-(trifluoromethoxy)phenyl]vinyl}benzamide] | – | 30.6 | 29 | 40 | –
CC(C)COc1ccc(C(=O)N/C(=C\c2ccc(OC(C)C)cc2)C(=O)NCCO)cn1 [Example 2-19, N-[(Z)-1-{[(2-hydroxyethyl)amino]carbonyl}-2-(4-isopropoxyphenyl)vinyl]-6-isobutoxynicotinamide] | 74 to 76 | – | – | – | –
O=C(NCCO)/C(=C/c1ccc(OC2CC2)cc1)NC(=O)c1ccc(OCCC2CC2)cc1 [Example 16, 4-(2-Cyclopropylethoxy)-N-((Z)-2-[4-(cyclopropyloxy)phenyl]-1-{[(2-hydroxyethyl)amino]carbonyl}vinyl)benzamide] | – | – | 35 | 70 | 27.2
O=C(NCCO)/C(=C/c1ccc(C2CC2)cc1)NC(=O)c1ccc(OCCC2CC2)cc1 [Example 9, 4-(2-Cyclopropylethoxy)-N-((Z)-2-(4-cyclopropylphenyl)-1-{[(2-hydroxyethyl)amino]carbonyl}vinyl)benzamide] | – | 29.3 | 11 | 37 | –
CC(C)COc1ccc(C(=O)N/C(=C\c2ccc(C(F)(F)F)nc2)C(=O)NCCO)cc1 [Example 2-16, N-{(Z)-1-{[(2-hydroxyethyl)amino]carbonyl}-2-[6-(trifluoromethyl)pyridin-3-yl]vinyl}-4-isobutoxybenzamide] | 184 to 187 | – | – | – | –
O=C(NCCO)/C(=C/c1ccc(Cl)cc1)NC(=O)c1ccc(OCCC2CC2)cc1 [Example 14, N-((Z)-2-(4-Chlorophenyl)-1-{[(2-hydroxyethyl)amino]carbonyl}vinyl)-4-(2-cyclopropylethoxy)benzamide] | – | – | 12 | 86 | 33.2
COc1ccc(CCOc2ccc(C(=O)N/C(=C\c3ccc(OC(F)(F)F)cc3)C(=O)NCCO)cc2)cc1 [Example 3, N-{(Z)-1-{[(2-Hydroxyethyl)amino]carbonyl}-2-[4-(trifluoromethoxy)phenyl]vinyl}-4-[2-(4-methoxyphenyl)ethoxy]benzamide] | – | – | 22 | 57 | –
COc1ccc(CCOc2ccc(C(=O)N/C(=C\c3ccc(C4CC4)cc3)C(=O)NCCO)cc2)cc1 [Example 5, N-((Z)-2-(4-Cyclopropylphenyl)-1-{[(2-hydroxyethyl)amino]carbonyl}vinyl)-4-[2-(4-methoxyphenyl)ethoxy]benzamide] | – | – | 25 | 54 | 27.6
